From ChEMBL document CHEMBL3132810, “Novel benzofuranchromone and coumarin derivatives: synthesis and biological activity in K562 human leukemia cells” (Medchemcomm, 2013)
The source made the active and inactive calls. No cut-off for these calls is given here.

Assays:
K562 [1] = experiment: Cell cycle arrest in human K562 cells assessed as slight accumulation at G1 phase at 50 uM after 48 hrs by propidium iodide staining-based FACS -Calibur flow cytometry; assay type: functional
K562 [2] = experiment: Induction of apoptosis in human K562 cells at 100 uM after 72 hrs; assay type: functional, cell-based
K562 [3] = experiment: Induction of apoptosis in human K562 cells at 50 uM after 48 hrs; assay type: functional
K562 [4] = experiment: Induction of apoptosis in human K562 cells at 50 uM after 72 hrs; assay type: functional, cell-based
K562 [5] = experiment: Anticancer activity against human K562 cells assessed as growth inhibition; assay type: functional, cell-based
K562 [6] = experiment: Cell cycle arrest in human K562 cells assessed as accumulation at S phase at 50 uM after 48 hrs by propidium iodide staining-based FACS -Calibur flow cytometry; assay type: functional
K562 [7] = experiment: Cell cycle arrest in human K562 cells assessed as accumulation at G2 phase at 50 uM after 48 hrs by propidium iodide staining-based FACS -Calibur flow cytometry; assay type: functional

Compound | Activity (K562 [3]) [%] | Activity (K562 [6]) | also measured
COc1ccc2c(/C=C3\Oc4cc(C)ccc4C3=O)cc(=O)oc2c1 | 24 |  | Activity (K562 [1]): Active; Activity (K562 [2]): Active; Activity (K562 [4]): Active
COc1ccc(-c2cc(=O)c3cc(OC)c(OC)c(OC)c3o2)cc1O |  |  | IC50 (K562 [5]): 40 µM
COc1ccc2c(=O)c(/C=C3\Oc4ccccc4C3=O)coc2c1 | 17 |  | 
Cc1ccc2c(c1)O/C(=C\c1coc3ccc(C)cc3c1=O)C2=O | 24 |  | Activity (K562 [1]): 72%
O=C1/C(=C/c2coc3ccccc3c2=O)Oc2cc3ccccc3cc21 | 17 |  | 
O=C1/C(=C/c2coc3ccc(F)cc3c2=O)Oc2ccccc21 |  | Active | 
O=C1/C(=C/c2coc3ccc(Cl)cc3c2=O)Oc2ccccc21 |  | 63% | 
COc1ccc2c(C=O)cc(=O)oc2c1 |  |  | Activity (K562 [2]): Active; Activity (K562 [4]): Active
Cc1cc2occ(/C=C3\Oc4cc5ccccc5cc4C3=O)c(=O)c2cc1C | 17 |  | Activity (K562 [1]): Active
COc1cccc2occ(/C=C3\Oc4cc5ccccc5cc4C3=O)c(=O)c12 | 17 |  | Activity (K562 [1]): Active
Cc1ccc2occ(/C=C3\Oc4ccccc4C3=O)c(=O)c2c1 |  | Active | 
COc1ccc(/C=C2\Oc3c(cc(OC)c(OC)c3OC)C2=O)cc1O |  |  | IC50 (K562 [5]): 50 µM
Cc1ccc2c(c1)O/C(=C\c1coc3ccc(Cl)cc3c1=O)C2=O |  | Active | 
Cc1ccc2c(c1)O/C(=C\c1coc3ccccc3c1=O)C2=O |  | Active | 
O=C1/C(=C/c2coc3ccccc3c2=O)Oc2ccccc21 | 17 |  | 
COc1ccc2c(/C=C3\Oc4cc5ccccc5cc4C3=O)cc(=O)oc2c1 | 24 |  | Activity (K562 [7]): 46%
COc1ccc(/C=C2\Oc3cc(C)ccc3C2=O)cc1 |  |  | Activity (K562 [2]): Active; Activity (K562 [4]): Active
Cc1ccc2c(c1)O/C(=C\c1coc3cc(Cl)ccc3c1=O)C2=O |  | Active | 
O=C1/C(=C/c2coc3ccc(Cl)cc3c2=O)Oc2cc3ccccc3cc21 | 17 |  | 
Cc1ccc2c(c1)O/C(=C\c1coc3ccc(F)cc3c1=O)C2=O |  | Active | 
